Consider 12 compounds from PMC8978638 (RSC Advances, 2021).

Structures are written as SMILES.

One experiment deals with human BChE (Homo sapiens, UniProt P06276). The experiment in a line: Enzyme inhibition assay. It counts as biochemical.
Experiment [1] in a line: DPPH free radical scavenging. Conditions: % scavenging of DPPH at 1 μg μL^−1 concentration. Background: Loss of DPPH colour is used to gauge radical scavenging.
The target in a further experiment is human AChE (Homo sapiens, UniProt P22303). The experiment in a line: Enzyme inhibition assay. The format is biochemical.
Sequence of human AChE (P22303 32-614): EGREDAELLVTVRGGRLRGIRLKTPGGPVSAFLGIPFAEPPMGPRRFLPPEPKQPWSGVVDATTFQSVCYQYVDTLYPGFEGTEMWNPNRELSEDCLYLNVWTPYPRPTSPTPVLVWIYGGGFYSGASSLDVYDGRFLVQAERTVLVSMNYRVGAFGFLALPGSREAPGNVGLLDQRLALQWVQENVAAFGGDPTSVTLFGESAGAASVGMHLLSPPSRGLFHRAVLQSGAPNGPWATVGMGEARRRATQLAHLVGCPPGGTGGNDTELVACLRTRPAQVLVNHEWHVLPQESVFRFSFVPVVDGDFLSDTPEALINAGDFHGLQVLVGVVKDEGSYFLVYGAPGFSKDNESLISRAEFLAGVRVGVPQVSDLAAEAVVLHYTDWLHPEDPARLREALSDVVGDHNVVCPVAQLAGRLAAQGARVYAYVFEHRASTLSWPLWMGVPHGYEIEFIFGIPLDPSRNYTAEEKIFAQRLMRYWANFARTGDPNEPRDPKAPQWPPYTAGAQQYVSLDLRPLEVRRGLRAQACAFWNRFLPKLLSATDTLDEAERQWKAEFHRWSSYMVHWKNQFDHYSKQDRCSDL

Sequence of human BChE (P06276 29-602): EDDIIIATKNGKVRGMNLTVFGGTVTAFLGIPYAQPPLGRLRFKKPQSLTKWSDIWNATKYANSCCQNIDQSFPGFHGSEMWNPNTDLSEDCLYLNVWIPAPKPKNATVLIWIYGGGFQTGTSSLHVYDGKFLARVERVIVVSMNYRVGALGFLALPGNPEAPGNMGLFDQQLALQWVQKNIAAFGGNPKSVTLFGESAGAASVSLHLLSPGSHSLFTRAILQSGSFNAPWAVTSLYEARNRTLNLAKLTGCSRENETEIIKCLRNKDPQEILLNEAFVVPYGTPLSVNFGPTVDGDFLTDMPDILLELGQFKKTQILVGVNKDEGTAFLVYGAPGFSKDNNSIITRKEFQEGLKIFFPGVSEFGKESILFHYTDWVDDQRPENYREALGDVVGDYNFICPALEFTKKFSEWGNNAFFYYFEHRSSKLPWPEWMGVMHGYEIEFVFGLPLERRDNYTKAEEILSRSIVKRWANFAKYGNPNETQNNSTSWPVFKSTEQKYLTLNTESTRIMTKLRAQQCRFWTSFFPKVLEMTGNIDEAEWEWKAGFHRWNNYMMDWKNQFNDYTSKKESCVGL

One may read the IC50 as the concentration that inhibits the measured activity by half. A low value points to inhibition by little substance. Take `O=C(Nc1ccccc1C(=O)N/N=C/c1ccc(Cl)cc1)c1ccccc1` [Compound 05, (E)-N-(2-(2-(4-Chlorobenzylidene)hydrazinecarbonyl)phenyl) benzamide]: the results for the IC50 at human BChE and against human AChE were 1240 ± 120 nM and 1030 ± 120 nM, respectively. For the same compound, the “Scavenging (%)” value in experiment [1] was 35.37%.

Consider `CC(C)c1ccc(/C=N/NC(=O)c2ccccc2NC(=O)c2ccccc2)cc1` [Compound 09, (E)-N-(2-(2-(4-Isopropylbenzylidene)hydrazinecarbonyl)phenyl)benzamide], for which the “Scavenging (%)” value in experiment [1] came out at 33.73%. The same compound had a concentration for half-maximal inhibition (IC50) against human AChE of 23100 ± 250 nM.

`CN(C)c1ccc(/C=N/NC(=O)c2ccccc2NC(=O)c2ccccc2)cc1` [Compound 07, (E)-N-(2-(2-(4-(Dimethylamino)benzylidene)hydrazinecarbonyl)phenyl)benzamide]: the “Scavenging (%)” value in experiment [1] was found to be 43.97%. Besides, the half-maximal inhibitory concentration (IC50) on human AChE was found to be 25200 ± 210 nM.

As for `O=C(Nc1ccccc1C(=O)N/N=C/c1ccc([N+](=O)[O-])cc1)c1ccccc1` [Compound 08, (E)-N-(2-(2-(4-Nitrobenzylidene)hydrazinecarbonyl)phenyl)benzamide], the half-inhibitory concentration (IC50) worked out at 190 ± 120 nM against human BChE and 14800 ± 290 nM at human AChE. In experiment [1], the “Scavenging (%)” value was found to be 20.20%.

Turning to `O=C(Nc1ccccc1C(=O)N/N=C/c1ccccc1O)c1ccccc1` [Compound 11, (E)-N-(2-(2-(2-Hydroxybenzylidene)hydrazinecarbonyl)phenyl)benzamide], the IC50 against human BChE amounted to 120 ± 90 nM; at human AChE it was 1140 ± 350 nM. In addition, the “Scavenging (%)” value in experiment [1] was 67.54%.

Turning to `NNC(=O)c1ccccc1NC(=O)c1ccccc1` [Compound 04, N-(2-(hydrazinecarbonyl)phenyl)benzamide], the figures for the 50% inhibitory concentration (IC50) on human BChE and at human AChE were 170 ± 120 nM and 27650 ± 140 nM, respectively. Further, the entries for the “Scavenging (%)” value in experiment [1] and in experiment [1] (listed as 4) were 95.06% and 95.07%, respectively.

Regarding `O=C(Nc1ccccc1C(=O)N/N=C/c1ccc(O)cc1O)c1ccccc1` [Compound 10, (E)-N-(2-(2-(2,4-Dihydroxybenzylidene)hydrazinecarbonyl)phenyl)benzamide], the concentration for half-maximal inhibition (IC50) against human BChE is 2150 ± 260 nM; against human AChE it was 18500 ± 190 nM. In experiment [1], the “Scavenging (%)” value was found to be 82.55%.

As to `O=C1O[C@H]([C@@H](O)CO)C(O)=C1O` [Ascorbic acid, ascorbic acid, reference compound], in experiment [1], the “Scavenging (%)” value came out at 96.39%.

Turning to `COC(=O)c1ccccc1NC(=O)c1ccccc1` [Compound 03, methyl-2-benzamidobenzoate], the values for the IC50 against human BChE and on human AChE were 210 ± 60 nM and 250 ± 60 nM, respectively. Further, the “Scavenging (%)” value in experiment [1] was found to be 37.17%.

Turning to `O=C(Nc1ccccc1C(=O)N/N=C/c1ccccc1)c1ccccc1` [Compound 13, (E)-N-(2-(2-Benzylidenehydrazinecarbonyl)phenyl)benzamide], the IC50 on human BChE amounted to 100 ± 60 nM; at human AChE, 110 ± 30 nM. Moreover, in experiment [1], the “Scavenging (%)” value came out at 30.21%.

For `COc1ccc(/C=N/NC(=O)c2ccccc2NC(=O)c2ccccc2)cc1` [Compound 12, (E)-N-(2-(2-(4-Methoxybenzylidene)hydrazinecarbonyl)phenyl)benzamide], the IC50 at human BChE was 18340 ± 140 nM; on human AChE, 20400 ± 230 nM. For the same compound, the “Scavenging (%)” value in experiment [1] is given as 30.09%.

For `O=C(Nc1ccccc1C(=O)N/N=C/c1ccc(Br)cc1)c1ccccc1` [Compound 06, (E)-N-(2-(2-(4-Bromobenzylidene)hydrazinecarbonyl)phenyl)benzamide], the results for the IC50 against human BChE and on human AChE were 140 ± 50 nM and 90 ± 50 nM, respectively. The “Scavenging (%)” value in experiment [1] is listed as 15.88%.
